Values of other authors as cited in patent publication US8728545B2, “Extraction method for providing an organic certifiable Stevia rebaudiana extract” (Justbio Inc., priority 2010, dated 2014).
Peptide text beside a SMILES is read from it.

How the values were obtained:
[1] = in water; Crammer and Ikan, 1986
[2] = for Sweetness compared to sucrose: principal steviol glycosides found in stevia leaves; for Relative sweetness among steviol glycosides (in words): comparison between glycosides, Crammer and Ikan 1986, 1987

## CC1=CC(=O)[N-]S(=O)(=O)O1.[K+] [Acesulfame-K]
[1]
  Sweetness in Sucrose Equivalence (% SE): 11.6 % SE

## COC(=O)[C@H](Cc1ccccc1)NC(=O)[C@@H](N)CC(=O)O [Aspartame] (H-Asp-Phe-OMe)
[1]
  Sweetness in Sucrose Equivalence (% SE): 16.0 % SE

## O=S(=O)([O-])NC1CCCCC1.[Na+] [Cyclamate-Na]
[1]
  Sweetness in Sucrose Equivalence (% SE): 15.2 % SE

## C=C1C[C@@]23CC[C@H]4[C@@](C)(CCC[C@@]4(C)C(=O)O[C@@H]4O[C@H](CO)[C@@H](O)[C@H](O)[C@H]4O)[C@@H]2CC[C@]1(O[C@@H]1O[C@H](CO)[C@@H](O)[C@H](O)[C@H]1O[C@@H]1O[C@@H](C)[C@H](O)[C@@H](O)[C@H]1O)C3 [Dulcoside A]
[2]
  Sweetness compared to sucrose: 50-120 fold

## CC1(C)[C@@H](O[C@H]2O[C@H](C(=O)O)[C@@H](O)[C@H](O)[C@H]2O[C@@H]2O[C@H](C(=O)O)[C@@H](O)[C@H](O)[C@H]2O)CC[C@]2(C)[C@H]3C(=O)C=C4[C@@H]5C[C@@](C)(C(=O)O)CC[C@]5(C)CC[C@@]4(C)[C@]3(C)CC[C@@H]12.N [Monoammonium Glycyrhisinate]
[1]
  Sweetness in Sucrose Equivalence (% SE): 7.3 % SE

## COc1ccc(CCC(=O)c2c(O)cc(O[C@@H]3O[C@H](CO)[C@@H](O)[C@H](O)[C@H]3O[C@@H]3O[C@@H](C)[C@H](O)[C@@H](O)[C@H]3O)cc2O)cc1O [Neohesperidin Didydrochalcone]
[1]
  Sweetness in Sucrose Equivalence (% SE): 9.8 % SE

## COC(=O)[C@H](Cc1ccccc1)NC(=O)[C@H](CC(=O)O)NCCC(C)(C)C [Neotame]
[1]
  Sweetness in Sucrose Equivalence (% SE): 15.1 % SE

## C=C1C[C@@]23CC[C@H]4[C@@](C)(CCC[C@@]4(C)C(=O)O[C@@H]4O[C@H](CO)[C@@H](O)[C@H](O)[C@H]4O)[C@@H]2CC[C@]1(O[C@@H]1O[C@H](CO)[C@@H](O)[C@H](O[C@@H]2O[C@H](CO)[C@@H](O)[C@H](O)[C@H]2O)[C@H]1O[C@@H]1O[C@H](CO)[C@@H](O)[C@H](O)[C@H]1O)C3 [Rebaudioside A]
[2]
  Relative sweetness among steviol glycosides (in words): the sweetest
  Sweetness compared to sucrose: 250-450 fold

## C=C1C[C@@]23CC[C@H]4[C@@](C)(CCC[C@@]4(C)C(=O)O[C@@H]4O[C@H](CO)[C@@H](O)[C@H](O)[C@H]4O[C@@H]4O[C@H](CO)[C@@H](O)[C@H](O)[C@H]4O)[C@@H]2CC[C@]1(O[C@@H]1O[C@H](CO)[C@@H](O)[C@H](O[C@@H]2O[C@H](CO)[C@@H](O)[C@H](O)[C@H]2O)[C@H]1O[C@@H]1O[C@H](CO)[C@@H](O)[C@H](O)[C@H]1O)C3 [Rebaudioside D]
[1]
  Sweetness in Sucrose Equivalence (% SE): 10.1 % SE
[2]
  Relative sweetness among steviol glycosides (in words): as sweet as rebaudioside A
  Sweetness compared to sucrose: 240-450 fold

## C=C1C[C@@]23CC[C@H]4[C@@](C)(CCC[C@@]4(C)C(=O)O[C@@H]4O[C@H](CO)[C@@H](O)[C@H](O)[C@H]4O[C@@H]4O[C@H](CO)[C@@H](O)[C@H](O)[C@H]4O)[C@@H]2CC[C@]1(O[C@@H]1O[C@H](CO)[C@@H](O)[C@H](O)[C@H]1O[C@@H]1O[C@H](CO)[C@@H](O)[C@H](O)[C@H]1O)C3 [Rebaudioside E]
[2]
  Relative sweetness among steviol glycosides (in words): as sweet as stevioside
  Sweetness compared to sucrose: 150-300 fold

## O=C1[N-]S(=O)(=O)c2ccccc21.[Na+] [Saccharin-Na]
[1]
  Sweetness in Sucrose Equivalence (% SE): 10.1 % SE

## C=C1C[C@@]23CC[C@H]4[C@@](C)(CCC[C@@]4(C)C(=O)[O-])[C@@H]2CC[C@]1(O[C@@H]1O[C@@H](CO)[C@@H](O)[C@H](O)[C@@H]1O[C@@H]1O[C@@H](CO)[C@@H](O)[C@H](O)[C@@H]1O)C3.[Na+] [Steviobioside]
[2]
  Sweetness compared to sucrose: 100-125 fold

## C=C1C[C@@]23CC[C@H]4[C@@](C)(CCC[C@@]4(C)C(=O)O[C@@H]4O[C@H](CO)[C@@H](O)[C@H](O)[C@H]4O)[C@@H]2CC[C@]1(O[C@@H]1O[C@H](CO)[C@@H](O)[C@H](O)[C@H]1O[C@@H]1O[C@H](CO)[C@@H](O)[C@H](O)[C@H]1O)C3 [Stevioside]
[2]
  Sweetness compared to sucrose: 300 fold

## OC[C@H]1O[C@H](O[C@]2(CCl)O[C@H](CCl)[C@@H](O)[C@@H]2O)[C@H](O)[C@@H](O)[C@H]1Cl [Sucralose]
[1]
  Sweetness in Sucrose Equivalence (% SE): 13.0 % SE

## Rebaudioside B
[2]
  Sweetness compared to sucrose: 300-350 fold

## Rebaudioside C
[2]
  Sweetness compared to sucrose: 50-120 fold
